Data taken from US10935498B1, “Fluorescent probe for detecting nitroreductase and preparation method and use thereof in enzymatic reaction” (SOUTH CHINA UNIVERSITY OF TECHNOLOGY, priority 2018, dated 2021).

Tests used:
[1] = system: nitroreductase; experiment: Fluorescent response of the probe to nitroreductase (NTR) in PBS buffer; type: biochemical; conditions: probe 10 μM, excitation 500 nm
Experimental: 1.5 mg of the solid fluorescent compound, 3-(4-(2-(4′-(diphenylamino)-3-((4-nitrobenzyl)oxy)-[1,1′-biphenyl]-4-yl)vinyl)quinolin-1-ium-1-yl)propane-1-sulfonate (TAE-NQS, prepared in Example 1), was dissolved in 2 mL of DMSO, and prepared into a 1 mM stock solution of the fluorescent compound. Before the test, of the fluorescent compound was diluted with a phosphate buffer (10 mM, pH 7.4), and a solution system to be tested containing 1% DMSO was obtained (final concentration of the probe was 10 μM).
3 μL of the above-mentioned stock solution of the fluorescent compound was drawn, and a blank control sample and test samples were prepared with PBS buffer solution (10 mM, pH=7.4). […] The samples were incubated at 37° C. for 15 minutes, then the absorption spectra ranging from 350 nm to 700 nm were recorded, and the fluorescence spectra were measured under the excitation light of 500 nm. […]
When the concentration of NTR was 2 μg/mL and the concentration of the probe was 10 μM, the fluorescence intensity varied over time, shown as FIG. 7. […] By controlling the temperature to be 37° C. and the incubation time to be 5 minutes, the fluorescence spectra under the excitation wavelength of 500 nm for each test sample were recorded. […]

[2] = Solubility (stated property); type: physicochemical
[3] = Photostability (stated property); type: physicochemical
[4] = Toxicity (stated property)

O=[N+]([O-])c1ccc(COc2cc(-c3ccc(N(c4ccccc4)c4ccccc4)cc3)ccc2C=Cc2cc[n+](CCCS(=O)(=O)[O-])c3ccccc23)cc1 [TAE-NQS, 3-(4-(2-(4′-(diphenylamino)-3-((4-nitrobenzyl)oxy)-[1,1′-biphenyl]-4-yl)vinyl)quinolin-1-ium-1-yl)propane-1-sulfonate]
time in which the enzymatic reaction was completed ([1]; NTR 0 μg/mL to 5 μg/mL, PBS pH 7.4, 37° C.): ≤ 30 min | fluorescence intensity compared with the blank sample ([1]; nitroreductase 2 μg/mL, NADH 100 μM, PBS 10 mM pH 7.4, 37° C., 15 minutes): changed significantly | solubility in solvents such as DMSO and DMF ([2]; DMSO, DMF): easily soluble | solubility in water ([2]; water): slightly soluble | photostability [3]: good | toxicity [4]: non-toxic
